Test systems include 786-0 renal; A549 NSCLC; ACHN renal; DU-145 prostate; HT29 colon; K-562 leukemia; OVCAR-4 ovarian; SF-295 CNS; SK-MEL-2 melanoma; T-47D breast.
Holding throughout (assay): NCI tumour cell line growth inhibition, 48 h

Results on 18 compounds are retold here after PubChem BioAssay (NCI).

Several values for one entry are separate records, joined by “and”; a condition that tells them apart may be missing. Equal values may be shown once.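 Dose response: 5 concentrations. Exposure: 48 h. Format: 96-well plates. Endpoint: linear interpolation; highest concentration if not reached. GI50 = concentration required for 50% inhibition of growth. TGI is the concentration that stops growth completely.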 Where a SMILES comes first, the peptide text is derived from it. [ ]: non-standard residue; d: D form. Ava = NCCCCC(=O)O; Mpa = O=C(O)CCS

`CCN(CC)Cc1cc(N=Nc2c(O)ccc3c(N=Nc4ccc(O)c(CN(CC)CC)c4)c(O)ccc23)ccc1O`: the TGI in the test on 786-0 renal is 3.75 µM; with A549 NSCLC it was over 23.5 µM; in the test on ACHN renal, 7.71 µM; with DU-145 prostate, 9.55 µM; in the test on HT29 colon it was 9.31 µM; with K-562 leukemia, over 36.3 µM. In addition, the TGI with OVCAR-4 ovarian was 7.21 µM; in the test with SF-295 CNS, 20 µM; in the test on SK-MEL-2 melanoma, over 51.6 µM; in the test on T-47D breast it was 32.7 µM.

In the case of `CCO/N=C\c1ccc2oc(-c3ccccc3)cc(=O)c2c1`, the TGI with 786-0 renal is 17.7 µM; in the test on A549 NSCLC it was 17 µM; in the test on ACHN renal it was 37.2 µM; in the test on DU-145 prostate, 13.3 µM; with HT29 colon, 5.34 µM; in the test on K-562 leukemia, over 100 µM. The TGI with OVCAR-4 ovarian is over 85.9 µM; with SF-295 CNS, 16.3 µM; with SK-MEL-2 melanoma, 4.54 µM; in the test on T-47D breast, 63.6 µM.

Consider `CC(NC(=O)CCS)C(=O)NC(C)C(=O)NC(Cc1c[nH]c2ccccc12)C(=O)NC(Cc1c[nH]cn1)C(=O)NC(CO)C(=O)NC(Cc1c[nH]c2ccccc12)C(=O)NCCCCC(=O)NC(C)C(=O)NC(CCC(N)=O)C(=O)NC(CCCCN)C(=O)NC(C)C(=O)NC(CCCNC(=N)N)C(=O)NC(CCCCN)C(N)=O` (centres undefined) ([Mpa]AAWHSW[Ava]AQKARK-NH2; configuration not given here), for which the TGI in the test with 786-0 renal was over 100 µM; in the test with A549 NSCLC, over 100 µM; in the test with ACHN renal, over 100 µM; with DU-145 prostate, over 100 µM; in the test on HT29 colon, over 100 µM; in the test on K-562 leukemia it was 99.4 µM. Also, the TGI with OVCAR-4 ovarian is over 100 µM; in the test with SF-295 CNS, over 100 µM; in the test on SK-MEL-2 melanoma, over 100 µM; in the test with T-47D breast it was 64 µM.

On to `Cc1cc2ncn(CC(=O)O)c2cc1C`, for which the TGI in the test with 786-0 renal, in the test on A549 NSCLC, with ACHN renal, in the test on DU-145 prostate, in the test on HT29 colon and in the test on K-562 leukemia was over 100 µM each time. For the same compound, the TGI in the test on OVCAR-4 ovarian, with SF-295 CNS, in the test with SK-MEL-2 melanoma and in the test on T-47D breast was over 100 µM throughout.

For `COc1ccc(N2C(=O)C3ON(Cc4ccc(CC(N)=O)cc4)C(c4c5ccccc5c(C)c5ccccc45)C3C2=O)cc1` (centres undefined), the TGI was over 100 µM with 786-0 renal; over 100 µM in the test with A549 NSCLC; 77.9 µM with ACHN renal; 78 µM with DU-145 prostate; 35 µM in the test on HT29 colon; 38 µM in the test on K-562 leukemia. Also, the TGI is 96.5 µM in the test on OVCAR-4 ovarian, over 100 µM with SF-295 CNS, 48.7 µM with SK-MEL-2 melanoma and 80.1 µM with T-47D breast.

`O=C(COc1cc(=O)oc2ccccc12)c1ccccc1`: the TGI in the test on 786-0 renal is over 100 µM; in the test with A549 NSCLC it was over 100 µM; in the test with ACHN renal it was 36.4 µM; in the test with DU-145 prostate, over 100 µM; with HT29 colon, 45.7 µM; in the test on K-562 leukemia, over 100 µM. Moreover, the TGI in the test with OVCAR-4 ovarian is over 100 µM; with SF-295 CNS, 87.4 µM; with SK-MEL-2 melanoma, over 100 µM; with T-47D breast it was over 100 µM.

In the case of `COc1ccc(SCc2cc(OC)ccc2OC)cc1`, the TGI in the test on 786-0 renal was over 100 µM; in the test with A549 NSCLC, over 100 µM; with ACHN renal, over 100 µM; in the test with DU-145 prostate, over 100 µM; in the test with HT29 colon, over 100 µM; in the test with K-562 leukemia, over 51.3 µM. In addition, the TGI in the test on OVCAR-4 ovarian is over 100 µM; in the test on SF-295 CNS, over 100 µM; in the test on SK-MEL-2 melanoma it was over 88.8 µM; with T-47D breast, over 100 µM.

For the compound `Cc1ccc([N+](=O)[O-])cc1S(=O)(=O)Nc1ccc(C2=NN(S(=O)(=O)c3cc([N+](=O)[O-])ccc3C)C(c3cccs3)C2)cc1` (centres undefined), the TGI was over 100 µM with 786-0 renal; over 100 µM in the test on A549 NSCLC; over 100 µM in the test with ACHN renal; over 100 µM with DU-145 prostate; over 100 µM with HT29 colon; 88.3 µM with K-562 leukemia. Further, the TGI in the test on OVCAR-4 ovarian was over 100 µM; with SF-295 CNS, 69.2 µM; in the test on SK-MEL-2 melanoma, 69.2 µM; in the test with T-47D breast, over 100 µM.

In the case of `C(=N\NC1=NCCCCN1)/c1ccc2ccccc2c1`, the TGI in the test with 786-0 renal was 67.9 µM; in the test on A549 NSCLC it was over 100 µM; with ACHN renal, over 100 µM; in the test on DU-145 prostate, over 100 µM; in the test with HT29 colon, 71.9 µM; with K-562 leukemia, 40.2 µM. The TGI in the test on OVCAR-4 ovarian was over 100 µM; with SF-295 CNS, 46.3 µM; in the test on SK-MEL-2 melanoma it was 46.7 µM; in the test with T-47D breast, 62 µM.

Take `COC(=O)C1(Cc2ccc3c(c2)CCC3)Cc2ccc3c(c2C1=O)CCC3` (centres undefined): the TGI in the test on 786-0 renal was over 91.3 µM; with A549 NSCLC, over 100 µM; with ACHN renal it was over 100 µM; in the test with DU-145 prostate, over 100 µM; in the test on HT29 colon, over 34.8 µM; with K-562 leukemia, over 100 µM. Also, the TGI in the test on OVCAR-4 ovarian was over 66.7 µM; in the test with SF-295 CNS, over 72.6 µM; in the test with SK-MEL-2 melanoma, 15.4 µM; with T-47D breast it was over 68.6 µM.

For `CCC1c2[nH]c3ccccc3c2C[C@H]2C(=O)NC(C)C(=O)N12` (some centres undefined), the TGI in the test on 786-0 renal, with A549 NSCLC, with ACHN renal, with DU-145 prostate, in the test with HT29 colon and in the test with K-562 leukemia was over 100 µM throughout. In addition, the TGI in the test on OVCAR-4 ovarian, in the test with SF-295 CNS, in the test with SK-MEL-2 melanoma and in the test with T-47D breast was over 100 µM in each case.

Regarding `CC(C)(C)OC(=O)NC(CSCc1ccc(C(=O)c2ccccc2)cc1)C(=O)N1CCN(CCCCN2c3ccccc3Sc3cc(N=[N+]=[N-])ccc32)CC1` (centres undefined), the TGI in the test on 786-0 renal, in the test on A549 NSCLC, in the test on ACHN renal, with DU-145 prostate, in the test on HT29 colon and in the test with K-562 leukemia was over 100 µM each time. Moreover, the TGI with OVCAR-4 ovarian, in the test with SF-295 CNS, in the test on SK-MEL-2 melanoma and in the test with T-47D breast was over 100 µM each time.

As to `COC(=O)[C@@]12CSC[C@]1(C(=O)OC)N[C@@H](c1ccccc1O)C2`, the TGI in the test with 786-0 renal, with A549 NSCLC, in the test with ACHN renal, in the test on DU-145 prostate, in the test on HT29 colon and with K-562 leukemia was over 100 µM each time. For the same compound, the TGI in the test with OVCAR-4 ovarian, with SF-295 CNS, in the test with SK-MEL-2 melanoma and in the test on T-47D breast was over 100 µM throughout.

For the compound `O=[N+]([O-])c1ccc2c(c1)nc1n2C(c2c(F)cccc2F)SC1` (centres undefined), the TGI with 786-0 renal, in the test with A549 NSCLC, in the test with ACHN renal, in the test on DU-145 prostate, in the test with HT29 colon and in the test on K-562 leukemia was over 100 µM throughout. The TGI with OVCAR-4 ovarian, in the test on SF-295 CNS, in the test on SK-MEL-2 melanoma and with T-47D breast was over 100 µM in each case.

With `N=c1oc2ccc3ccccc3c2cc1-c1nc2ccccc2c(=O)[nH]1`, the TGI is over 100 µM in the test with 786-0 renal; 73.3 µM in the test with A549 NSCLC; 34 µM with ACHN renal; over 100 µM with DU-145 prostate; 39.5 µM in the test on HT29 colon; over 100 µM in the test on K-562 leukemia. For the same compound, the TGI is 67.2 µM in the test with OVCAR-4 ovarian, over 100 µM in the test on SF-295 CNS, 31.8 µM in the test with SK-MEL-2 melanoma and over 100 µM in the test with T-47D breast.

Regarding `Cc1cc(=O)[nH]c2cc(NC(=O)C(C)NC(=O)C(C)NC(=O)C(C)NC(=O)OC(C)(C)C)ccc12` (centres undefined), the TGI in the test with 786-0 renal, with A549 NSCLC, in the test on ACHN renal, in the test with DU-145 prostate, with HT29 colon and in the test with K-562 leukemia was over 15 µM throughout. In addition, the TGI in the test with OVCAR-4 ovarian, in the test with SF-295 CNS, with SK-MEL-2 melanoma and in the test on T-47D breast was over 15 µM throughout.

As for `O=C(CCCc1cccc2[nH]c3c(c12)CN(Cc1ccccc1)CC3)c1ccc(F)cc1`, the TGI in the test on 786-0 renal was over 100 µM; with A549 NSCLC it was over 100 µM; in the test with ACHN renal, over 100 µM; in the test on DU-145 prostate, over 100 µM; in the test on HT29 colon, over 45.8 µM; with K-562 leukemia, over 100 µM. For the same compound, the TGI in the test on OVCAR-4 ovarian is over 100 µM; in the test on SF-295 CNS, over 100 µM; in the test with SK-MEL-2 melanoma it was over 100 µM; in the test on T-47D breast it was over 58.7 µM.

Turning to `COc1ccc2[nH]c3ccc4cc[n+](CCN5CCC(C6CCN(CC[n+]7ccc8ccc9[nH]c%10ccc(OC)cc%10c9c8c7)CC6)CC5)cc4c3c2c1`, the TGI in the test with 786-0 renal was 50 µM; in the test on A549 NSCLC, 50 µM and > 62.2 µM; in the test with ACHN renal, 50 µM; with DU-145 prostate it was 50 µM; with HT29 colon, 31.4 µM and > 100 µM; with K-562 leukemia, 1.41 µM and 7.67 µM. Besides, the TGI in the test on OVCAR-4 ovarian was 17.7 µM and > 100 µM; with SF-295 CNS, 44.8 µM and 42.2 µM; in the test on SK-MEL-2 melanoma, over 90.7 µM; in the test with T-47D breast, 50 µM. Further, the GI50 with A549 NSCLC was 0.747 µM; in the test on HT29 colon it was 0.938 µM; in the test with K-562 leukemia it was 0.164 µM; in the test with SF-295 CNS it was 34.5 µM.
